Columns and labels:
Test in all cases: relative viability (nuclei count vs DMSO), 5 days (fraction); higher = more cells survive
[1] = compound: CC(C)N(CCCNC(=O)Nc1ccc(C(C)(C)C)cc1)C[C@H]1O[C@@H](n2ccc3c(N)ncnc32)[C@H](O)[C@@H]1O + N=C(N)NC(=N)NCCc1ccccc1 [Phenformin] (partner 250 µM)
Procedure, shortened: (§1)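 Relative viability equals treated-well nuclei counts divided by vehicle-well nuclei counts. Counts came from 4× images of lung cancer cell lines grown in 1536-well plates for 5 days after pin-tool dosing on the day after seeding. Dosing used one drug alone or a fixed anchor-drug dose plus five library-drug doses (not always all listed) in √10 steps, and values are medians of duplicate plates.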

Shikonin + Tozasertib = compound: CC(C)=CC[C@@H](O)C1=CC(=O)c2c(O)ccc(O)c2C1=O [Shikonin] + Cc1cc(Nc2cc(N3CCN(C)CC3)nc(Sc3ccc(NC(=O)C4CC4)cc3)n2)n[nH]1 [Tozasertib] (partner 0.1 µM)
Procedure, shortened: as §1

Shikonin + Dasatinib = compound: CC(C)=CC[C@@H](O)C1=CC(=O)c2c(O)ccc(O)c2C1=O [Shikonin] + Cc1nc(Nc2ncc(C(=O)Nc3c(C)cccc3Cl)s2)cc(N2CCN(CCO)CC2)n1 [Dasatinib] (partner 0.075 µM)
Procedure, shortened: as §1

Shikonin + OSI-027 = compound: CC(C)=CC[C@@H](O)C1=CC(=O)c2c(O)ccc(O)c2C1=O [Shikonin] + COc1cccc2cc(-c3nc([C@H]4CC[C@H](C(=O)O)CC4)n4ncnc(N)c34)[nH]c12 [OSI-027] (partner 0.5 µM)
Procedure, shortened: as §1

For UMC-11, the relative viability ([1]; first compound 0.08 µM) was 0.321, the relative viability ([1]; first compound 0.253 µM) was 0.302 and the relative viability ([1]; first compound 0.8 µM) was 0.296. For the same cell line, the relative viability ([1]; first compound 2.53 µM) was 0.349, the relative viability ([1]; first compound 8 µM) was 0.322 and the relative viability (Shikonin + Tozasertib; first compound 0.01 µM) was 0.185. The relative viability (Shikonin + Tozasertib; first compound 0.1 µM) was 0.213, the relative viability (Shikonin + Tozasertib; first compound 0.3162 µM) was 0.203 and the relative viability (Shikonin + Tozasertib; first compound 1 µM) was 0.169. It also gave a relative viability (Shikonin + Dasatinib; first compound 0.01 µM) of 0.476, a relative viability (Shikonin + Dasatinib; first compound 0.1 µM) of 0.49 and a relative viability (Shikonin + Dasatinib; first compound 0.3162 µM) of 0.459. For the same cell line, the relative viability (Shikonin + Dasatinib; first compound 1 µM) was 0.503, the relative viability (Shikonin + OSI-027; first compound 0.01 µM) was 0.469 and the relative viability (Shikonin + OSI-027; first compound 0.1 µM) was 0.532. The relative viability (Shikonin + OSI-027; first compound 0.3162 µM) was 0.492 and the relative viability (Shikonin + OSI-027; first compound 1 µM) was 0.526.

From the supplement of paper PMC10307832
